Laboratory results taken from paper PMC12472512, “Design, Synthesis, In Silico Docking, Multitarget Bioevaluation and Molecular Dynamic Simulation of Novel Pyrazolo[3,4-d]Pyrimidinone Derivatives as Potential In Vitro and In Vivo Anti-Inflammatory Agents” (Pharmaceuticals, 2025).
Several values for one entry are separate records, joined by “and”; a condition that tells them apart may be missing. Equal values may be shown once. Entries after “also recorded” stand apart in the source; their conditions may differ.

Tests used:
[1] = system: TNF-α; test: ELISA of serum TNF-α in carrageenan-treated mice; type: in vivo; details: 50 mg/kg; carrageenan-treated mice at 3 h; compared to the control group
Procedure: To evaluate the anti-inflammatory mechanisms of these compounds, two key chemical mediators, TNF-α and IL-6, were assessed using enzyme-linked immunosorbent assay (ELISA).
(§1) All mice were sacrificed under anesthesia using ketamine/xylazine (50/15 mg/kg). Blood was collected for the ELISA assays to determine the levels of cytokines TNF-α and IL-6 using the Rat IL6 (Interleukin 6) ELISA Kit and Rat TNFα ELISA Kit (MyBioSource, San Diego, CA, USA), in accordance with the manufacturer’s instructions. The quantitative sandwich enzyme immunoassay technique is the fundamental principle of the TNF-α assay. A microplate was pre-coated with an antibody specific for TNF-α. Standards and samples were pipetted into the wells, and the immobilized antibody bound to any TNF-α that was present. A biotin-conjugated antibody that was specific for TNF-α was introduced to the wells after any unbound substances were removed. Horseradish peroxidase (HRP) conjugated with avidin was introduced to the wells subsequent to the cleaning process. After a wash to eliminate any unbound avidin–enzyme reagent, a substrate solution was introduced to the wells, and the color developed in proportion to the quantity of TNF-α bound in the initial step. The color development was halted, and the color intensity was quantified. Additionally, the Sandwich enzyme immunoassay is the test principle utilized for IL-6. The microtiter plates included in this preparation were pre-coated with an antibody that was specific to Rat IL6. A biotin-conjugated antibody specific to Rat IL6 was then added to the appropriate microtiter plate wells along with standards or samples. Subsequently, each microplate well was incubated with avidin conjugated to horseradish peroxidase (HRP). […] The addition of sulfuric acid solution terminated the enzyme–substrate reaction, and the color change was observed spectrophotometrically at a wavelength of 450 nm ± 10 nm. The concentration of Rat IL6 in the samples was subsequently determined by comparing the OD of the samples to the standard curve.
Blood was collected immediately following the decapitation of mice, performed in accordance with the institutional animal care and use committee (IACUC) guidelines. After decapitation, whole blood was allowed to flow freely and was collected directly into EDTA and heparinized tubes. The whole blood was centrifuged at 3000× g for 10 min at 4 °C, and the plasma was carefully collected and stored at –80 °C until further analysis.

[2] = system: IL-6; test: ELISA of serum IL-6 in carrageenan-treated mice; type: in vivo; details: 50 mg/kg; carrageenan-treated mice at 3 h
Procedure: Therefore, the anti-inflammatory activity of the tested compounds may hinge on their ability to suppress the pro-inflammatory TNF-α and IL-6 levels.
as §1, with “curve. […]” for “curve.”

[3] = system: carrageenan-induced paw edema; test: In vivo carrageenan-induced paw edema; details: 50 mg/kg oral, mice
[4] = system: gastric mucosa; test: Histopathological examination of stomach sections (H&E)
[5] = biological target: T1, COX-1 (Ovis aries, UniProt P05979); test: In vitro COX-1 inhibition, fluorescent inhibitor screening assay kit
T1 sequence (P05979 25-600): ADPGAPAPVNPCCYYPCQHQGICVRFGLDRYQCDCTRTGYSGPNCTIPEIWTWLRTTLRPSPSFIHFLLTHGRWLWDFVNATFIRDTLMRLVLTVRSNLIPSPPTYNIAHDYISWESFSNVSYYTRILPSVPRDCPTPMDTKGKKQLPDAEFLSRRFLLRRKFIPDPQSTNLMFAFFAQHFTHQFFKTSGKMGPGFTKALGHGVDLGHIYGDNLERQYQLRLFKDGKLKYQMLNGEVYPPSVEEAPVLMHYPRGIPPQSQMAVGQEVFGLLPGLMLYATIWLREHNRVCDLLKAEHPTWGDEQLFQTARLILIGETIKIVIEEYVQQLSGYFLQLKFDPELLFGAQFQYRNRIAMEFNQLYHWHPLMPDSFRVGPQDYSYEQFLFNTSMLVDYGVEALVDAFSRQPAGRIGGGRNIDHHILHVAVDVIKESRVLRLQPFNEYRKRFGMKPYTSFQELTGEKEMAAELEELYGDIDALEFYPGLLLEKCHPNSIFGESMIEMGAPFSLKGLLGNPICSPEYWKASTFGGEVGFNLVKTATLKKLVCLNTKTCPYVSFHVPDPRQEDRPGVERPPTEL
Procedure: (§2) Test compounds, dissolved in DMSO, and were pre-incubated with the enzymes at 37 °C for 5 min before initiating the reaction with 1 mM arachidonic acid under light-protected conditions. The fluorescence was measured using a multi-well spectrophotometer (fluorescence plate reader). […] The percentage inhibition was calculated by comparing the absorbance values of the compounds to the vehicle control.
(§3) This protocol utilizes a colorimetric assay to measure the peroxidase activity of Prostaglandin G/H
(§4) Synthase (COX enzyme). The COX enzyme converts Arachidonic Acid (AA) to Prostaglandin G2
(§5) (PGG2), which is then reduced to Prostaglandin H2 (PGH2) by the inherent peroxidase activity.
(§6) peroxidase reaction co-oxidizes a chromogen, such as N,N,N',N'-Tetramethyl-p-phenylenediamine
(§7) (TMPD), resulting in a colored product that can be measured spectrophotometrically at 590-630 nm.
(§8) inhibition of COX enzyme by a test compound reduces the formation of this colored product, allowing
(§9) for the calculation of percentage inhibition and subsequent IC50 values.
(§10) o Ovine COX-1 (purified, commercially available)
(§11) • Substrate: Arachidonic Acid (AA). Prepare a stock solution in ethanol. Note: AA is unstable;
(§12) aliquot and store under inert gas (e.g., Argon) at -80°C.
(§13) • Cofactor: Hemin. Prepare a stock solution in DMSO.
(§14) • Chromogen: N,N,N',N'-Tetramethyl-p-phenylenediamine (TMPD) dihydrochloride.
(§15) • Assay Buffer: 100 mM Tris-HCl buffer, pH 8.0. May contain 1-5 mM EDTA and 1-2 µM
Phenol (acts as a cofactor for COX-2).
(§16) • Solvents: Dimethyl Sulfoxide (DMSO), Ethanol (absolute).
(§17) consistent across all wells (typically ≤1% final concentration).
o Keep all dilutions on ice.
(§18) o COX-1 Working Solution: Dilute ovine COX-1 in ice-cold assay buffer to a final
(§19) concentration of ~50-100 U/mL. Add Hemin to a final concentration of 1 µM.
(§20) o Note: The exact enzyme units (U) required must be determined by a preliminary activity
(§21) test to ensure the reaction is linear and within the dynamic range of the assay.
(§22) Substrate/Chromogen Solution (Prepare Fresh):
(§23) o To a tube containing assay buffer, add TMPD to a final concentration of 0.2-0.5 mM.
(§24) o Add Arachidonic Acid to a final concentration of 100 µM. Vortex gently.
(§25) o Keep this solution protected from light and on ice until use.
(§26) Assay Setup (Performed in duplicate or triplicate)

[6] = biological target: T2, human recombinant COX-2 (Homo sapiens, UniProt P35354); test: In vitro COX-2 inhibition, fluorescent inhibitor screening assay kit
T2 sequence (P35354 18-604): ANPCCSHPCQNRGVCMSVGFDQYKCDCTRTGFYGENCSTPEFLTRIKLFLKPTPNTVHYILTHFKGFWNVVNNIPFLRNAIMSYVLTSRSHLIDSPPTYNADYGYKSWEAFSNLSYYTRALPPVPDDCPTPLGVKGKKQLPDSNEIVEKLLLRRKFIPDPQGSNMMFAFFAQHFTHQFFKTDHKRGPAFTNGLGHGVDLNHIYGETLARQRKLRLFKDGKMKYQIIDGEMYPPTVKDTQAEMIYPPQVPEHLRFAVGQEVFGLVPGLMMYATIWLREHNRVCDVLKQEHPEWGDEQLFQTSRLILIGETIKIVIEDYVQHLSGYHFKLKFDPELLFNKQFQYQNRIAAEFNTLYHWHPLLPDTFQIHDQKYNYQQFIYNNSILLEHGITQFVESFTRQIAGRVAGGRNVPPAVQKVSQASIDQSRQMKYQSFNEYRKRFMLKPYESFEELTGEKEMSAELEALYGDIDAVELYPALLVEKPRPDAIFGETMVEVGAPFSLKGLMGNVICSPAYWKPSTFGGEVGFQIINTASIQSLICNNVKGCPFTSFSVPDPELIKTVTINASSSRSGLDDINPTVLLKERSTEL
Procedure: as §2, §3, §4, §5, §6, §7, §8, §9, §10, §11, §12, §13, §14, §15
Phenol (acts as a cofactor for COX-2).
as §16, §17
o Keep all dilutions on ice.
as §18, §19, §20, §21, §22, §23, §24, §25, §26

[7] = system: COX-2; design: method as in PMID 19479756; details: cited from earlier work

Row | IC50 [5] [µM] | COX1 %inh ([5]; conc 0.01 (uM)) [%] | COX1 %inh ([5]; conc 0.1 (uM)) [%] | COX1 %inh ([5]; conc 1 (uM)) [%] | COX1 %inh ([5]; conc 10 (uM)) [%] | COX1 %inh ([5]; conc 100 (uM)) [%] | IC50 [6] [µM] | SI, in vitro COX-2 selectivity index (COX-1 IC50/COX-2 IC50) [6] | COX2 %inh ([6]; conc 0.1 (uM)) [%] | COX2 %inh ([6]; conc 1 (uM)) [%] | COX2 %inh ([6]; conc 10 (uM)) [%] | COX2 %inh ([6]; conc 100 (uM)) [%] | Compound | TNF-α levels in serum [1] | IL-6 levels in serum [2] | Percentage of inhibition of carrageenan-induced paw edema ([3]; 1 h) [%] | IC50 [7] [µM] | also measured
1 | 25.5 ± 0.86 | 0.72 | 5.18 | 15 | 31.4 | 74.9 | 0.266 ± 0.009 | 95.8 and 95.75 | -266 | -76 | 14.6 | 67.8 | O=C(Cn1cnc2c(cnn2-c2ccccc2)c1=O)N(c1ccccc1)c1ccccc1 [Compound 5k, 2-(4-Oxo-1-Phenyl-1,4-Dihydro-5H-Pyrazolo[3,4-d]Pyrimidin-5-yl)-N, N-Diphenyl Acetamide] | significantly reduced | significantly reduced | 31.46 | – | Percentage of inhibition of carrageenan-induced paw edema ([3]; 2 h): 44.88%; Percentage of inhibition of carrageenan-induced paw edema ([3]; 3 h, 50 mg/kg): 54.89%; histological structure of the gastric mucosa ([4]; stomach sections stained with H&E, 50 mg/kg): preserved gastric tissue integrity; also recorded: intact gastric tissue; also recorded: normal histological structure of the gastric mucosa; COX2 %inh ([6]; conc 0.01 (uM)): -394%
2 | 57.3 ± 1.93 | 0.27 | 6.51 | 12.3 | 24.6 | 69.2 | 2.34 ± 0.08 | 24.47 | -448 | -273 | -103 | 46.6 | CC(=NO)c1ccc(NC(=O)Cn2cnc3c(cnn3-c3ccccc3)c2=O)cc1 [Compound 5m, N-(4-(1-(Hydroxyimino)Ethyl)Phenyl)-2-(4-Oxo-1-Phenyl-1,4-Dihydro-5H-Pyrazolo[3,4-d]Pyrimidin-5-yl) Acetamide] | significantly reduced | significantly reduced | 3.43 | – | Percentage of inhibition of carrageenan-induced paw edema ([3]; 2 h, 50 mg/kg): 58.01%; Percentage of inhibition of carrageenan-induced paw edema ([3]; 3 h): 39.85%; histological structure of the gastric mucosa ([4]; stomach sections stained with H&E; 50 mg/kg): normal histological structure of the gastric mucosa
3 | – | – | – | – | – | – | – | – | – | – | – | – | O=C(Nn1cnc2c(cnn2-c2ccccc2)c1=O)c1ccccc1 [Compound I] | – | – | – | 78.9 | –
4 | – | – | – | – | – | – | – | – | – | – | – | – | O=C(NCc1ccccc1)c1nc2c(cnn2-c2ccccc2)c(=O)[nH]1 [II] | – | – | – | 23.8 | –
